# In ChEMBL document CHEMBL4406795, “An overview on the synthetic and medicinal perspectives of indenopyrazoles” (Eur J Med Chem, 2019):
# Tests used:
# [1] = target: Cyclin-dependent kinase 2 (Homo sapiens, UniProt P24941); experiment: Inhibition of CDK2 (unknown origin)
# Staphylococcus aureus [2] = experiment: Antibacterial activity against Staphylococcus aureus MTCC 7443 after 48 hrs by serial tube dilution method; type: functional; details: MTCC 7443, 48 h
# Bacillus subtilis [3] = experiment: Antibacterial activity against Bacillus subtilis MTCC 441 after 48 hrs by serial tube dilution method; type: functional; details: MTCC 441, 48 h
# Pseudomonas aeruginosa = experiment: Antibacterial activity against Pseudomonas aeruginosa MTCC 741 after 48 hrs by serial tube dilution method; type: functional; details: MTCC 741, 48 h
# Escherichia coli [4] = experiment: Antibacterial activity against Escherichia coli MTCC 42 after 48 hrs by serial tube dilution method; type: functional; details: for MIC: Escherichia coli, MTCC 42, 48 h
# Candida albicans [5] = experiment: Antifungal activity against Candida albicans MTCC 183 after 120 hrs by serial tube dilution method; type: functional; details: MTCC 183, 120 h
# Aspergillus niger [6] = experiment: Antifungal activity against Aspergillus niger MTCC 282 after 120 hrs by serial tube dilution method; type: functional; details: MTCC 282, 120 h
# Candida albicans [7] = experiment: Antifungal activity against Candida albicans MTCC 183 assessed as zone of inhibition; type: functional
# Aspergillus niger [8] = experiment: Antifungal activity against Aspergillus niger MTCC 282 assessed as zone of inhibition; type: functional
# Staphylococcus aureus [9] = experiment: Antibacterial activity against Staphylococcus aureus MTCC 7443 assessed as zone of inhibition; type: functional
# Bacillus subtilis [10] = experiment: Antibacterial activity against Bacillus subtilis MTCC 441 assessed as zone of inhibition; type: functional
# Escherichia coli [11] = experiment: Antibacterial activity against Escherichia coli MTCC 42 assessed as zone of inhibition; type: functional
smiles,measurement,setting,value
COc1ccc(-c2[nH]nc3c2C(=O)c2c(NC(=O)CN4CCN(C(=N)N)CC4)cccc2-3)cc1,IC50,[1],13 nM
NC(=O)Nc1cccc2c1C(=O)c1c-2n[nH]c1-c1csc(Cl)c1,IC50,[1],46 nM
COc1cc2c(cc1OC)C1=NN(C(N)=S)C(c3ccc(F)cc3)C1C2 (stereo unspecified),MIC,Staphylococcus aureus [2],4 µg/mL
same,MIC,Bacillus subtilis [3],4 µg/mL
same,MIC,Pseudomonas aeruginosa,4 µg/mL
same,MIC,Escherichia coli [4],4 µg/mL
COc1ccc(C2C3Cc4cc(OC)c(OC)cc4C3=NN2C(N)=O)cc1 (stereo unspecified),MIC,Candida albicans [5],2 to 4 µg/mL
same,MIC,Aspergillus niger [6],2 to 4 µg/mL
O=C(Nc1cccc2c1C(=O)c1c-2n[nH]c1-c1ccc(C(=O)N2CCNCC2)s1)NN1CCOCC1,IC50,[1],8 nM
CCc1nn(-c2nc(-c3ccc(Cl)cc3)cs2)c2c1Cc1ccccc1-2,-logMIC,Escherichia coli [4],1.78
Clc1ccc(-c2c3c(nn2-c2ccccc2)-c2ccccc2C3)cc1,inhibition zone (IZ),Candida albicans [7],16 mm
same,MIC,Candida albicans [5],50 µg/mL
same,inhibition zone (IZ),Aspergillus niger [8],16 mm
same,MIC,Aspergillus niger [6],50 µg/mL
Cc1nn(-c2nc(-c3ccc(Cl)cc3)cs2)c2c1C(=O)c1ccccc1-2,-logMIC,Escherichia coli [4],1.479
O=[N+]([O-])c1ccc(-c2nn(-c3ccccc3)cc2-c2c3c(nn2-c2ccccc2)-c2ccccc2C3)cc1,MIC,Staphylococcus aureus [2],50 µg/mL
same,inhibition zone (IZ),Candida albicans [7],18 mm
same,MIC,Bacillus subtilis [3],50 µg/mL
same,inhibition zone (IZ),Staphylococcus aureus [9],20 mm
same,MIC,Candida albicans [5],50 µg/mL
same,inhibition zone (IZ),Bacillus subtilis [10],20 mm
same,inhibition zone (IZ),Aspergillus niger [8],18 mm
same,MIC,Escherichia coli [4],50 µg/mL
same,inhibition zone (IZ),Escherichia coli [11],20 mm
same,MIC,Aspergillus niger [6],50 µg/mL
COc1ccc(-c2n[nH]c3c2C(=O)c2c(C=O)cccc2-3)cc1,IC50,[1],57 nM
Cc1nn(-c2nc(-c3ccc(Cl)cc3)cs2)c2c1Cc1ccccc1-2,-logMIC,Escherichia coli [4],1.764
Clc1ccc(-c2nn(-c3ccccc3)cc2-c2c3c(nn2-c2ccccc2)-c2ccccc2C3)cc1,MIC,Staphylococcus aureus [2],50 µg/mL
same,MIC,Bacillus subtilis [3],50 µg/mL
same,inhibition zone (IZ),Staphylococcus aureus [9],17 mm
same,inhibition zone (IZ),Bacillus subtilis [10],17 mm
same,MIC,Escherichia coli [4],50 µg/mL
same,inhibition zone (IZ),Escherichia coli [11],17 mm
CCc1nn(-c2nc(-c3ccc(Cl)cc3)cs2)c2c1C(=O)c1ccccc1-2,-logMIC,Escherichia coli [4],2.098
O=[N+]([O-])c1ccc(-c2c3c(nn2-c2ccccc2)-c2ccccc2C3)cc1,MIC,Staphylococcus aureus [2],50 µg/mL
same,inhibition zone (IZ),Candida albicans [7],13 mm
same,MIC,Bacillus subtilis [3],50 µg/mL
same,inhibition zone (IZ),Staphylococcus aureus [9],18 mm
same,MIC,Candida albicans [5],50 µg/mL
same,inhibition zone (IZ),Bacillus subtilis [10],18 mm
same,inhibition zone (IZ),Aspergillus niger [8],13 mm
same,MIC,Escherichia coli [4],50 µg/mL
same,inhibition zone (IZ),Escherichia coli [11],18 mm
same,MIC,Aspergillus niger [6],50 µg/mL
Cc1ccc2nc(-n3nc(-c4ccc(Cl)cc4)c4c3-c3ccccc3C4=O)sc2c1,MIC,Aspergillus niger [6],3.6 µM
O=[N+]([O-])c1cccc(-c2c3c(nn2-c2ccccc2)-c2ccccc2C3)c1,MIC,Staphylococcus aureus [2],50 µg/mL
same,inhibition zone (IZ),Candida albicans [7],15 mm
same,MIC,Bacillus subtilis [3],50 µg/mL
same,inhibition zone (IZ),Staphylococcus aureus [9],17 mm
same,MIC,Candida albicans [5],50 µg/mL
same,inhibition zone (IZ),Bacillus subtilis [10],17 mm
same,inhibition zone (IZ),Aspergillus niger [8],15 mm
same,MIC,Escherichia coli [4],50 µg/mL
same,inhibition zone (IZ),Escherichia coli [11],17 mm
same,MIC,Aspergillus niger [6],50 µg/mL
OC(Cn1cncn1)(Cn1cncn1)c1ccc(F)cc1F [FLUCONAZOLE],MIC,Aspergillus niger [6],5 µM
